Experimental data reported in US4139632A, “Psychotropic 2-trifluoromethyl-10-[3-(3-hydroxy-pyrrolidino)-propyl]-phenothiazine compounds” (Eisai Co., Ltd., priority 1975, dated 1979).

Tests used:
Format in all cases: in vivo
Mouse [1] = assay: Anti-writhing effect (analgetic activity); settings: read-out: Anti-writhing effect, 50% effective amount (ED50)
Method: (§1) Measurement of pharmacological activities are conducted in accordance with the procedures described in the following literatures:
Proc. Soc. […] Biol, & Med.,

Mouse [2] = assay: Anti-tremorine activity (anti-Parkinson activity); settings: for ED50: read-out: Anti-tremorine activity, 50% effective amount (ED50)
Method: (§2) Measurement of pharmacological activities are conducted in accordance with the procedures described in the following literatures: […]

Mouse [3] = assay: Anti-methanphethamine activity (neuroleptic activity); settings: read-out: Anti-methanphethamine, 50% effective amount (ED50)
Method: as §2

Mouse [4] = assay: Inhibitory effect of spontaneous motor activity; settings: read-out: Inhibitory effect of spontaneous motor activity, 50% effective amount (ED50)
Method: as §1
1) Svensson, T. H. et al

Mouse [5] = assay: Acute toxicity LD50, oral administration; settings: compared with chlorpromazine and fluphenazine

Structure (SMILES)	ED50 (Mouse [1]; mouse, oral administration)	ED50 (Mouse [2]; mouse, oral administration)	ED50 (Mouse [3]; mouse, oral administration)	ED50 (Mouse [4]; mouse, oral administration)	central anticholinergic activity (Mouse [2]; concluded from table comparison)	acute toxicity (LD50) relative to chlorpromazine and fluphenazine (Mouse [5])	ED50 (Mouse [1]; Mus musculus, po)	ED50 (Mouse [2]; Mus musculus, po)	ED50 (Mouse [3]; Mus musculus, po)	ED50 (Mouse [4]; Mus musculus, po)
OCCN1CCN(CCCN2c3ccccc3Sc3ccc(C(F)(F)F)cc32)CC1 [Fluphenazine]	2.5 to 10 mg/kg	12 mg/kg	0.5 mg/kg	2.1 mg/kg						
Cl.OC1CCN(CCCN2c3ccccc3Sc3ccc(C(F)(F)F)cc32)C1 (stereo not drawn) [Compound A, 2-trifluoromethyl-10-[3-(3-hydroxy-pyrrolidino)-propyl]-phenothiazine hydrochloride]	1 mg/kg	3.6 mg/kg	0.9 mg/kg	3.3 mg/kg	has central anticholinergic activity	far less than that of chlorpromazine and fluphenazine				
Cl.FC(F)(F)c1ccc2c(c1)N(CCCN1CCCC1)c1ccccc1S2 [Known Compound a, 2-trifluoromethyl-10-(3-pyrrolidino-propyl)-phenothiazine hydrochloride]	4.1 mg/kg	4.3 mg/kg	1.9 mg/kg	3.8 mg/kg						
CN(C)CCCN1c2ccccc2Sc2ccc(Cl)cc21 [Chlorpromazine]							9.4 mg/kg	2.3 mg/kg	5.6 mg/kg	13 mg/kg
